Measured values reported in patent US20130287918A1, “MICROBICIDAL COMPOSITION” (DUPONT NUTRITION DIOSCIENCES APS, priority 2010, published 2013).

Legend:
[1] = tested on: native flora of Lactic acid bacteria; test: Salsa sauce fresh challenge study, native lactic acid bacteria on MRS-agar; type: cell-based; conditions: for Cell counts on MRS-agar (native Lactic acid bacteria): Salsa sauce 4° C., FP1000-D1 1%, FP1000-D2 1%, MG200 1%, Potassium Sorbate 0.1%
Procedure: (§1) The viscous products were thoroughly mixed (2 minutes) within 10 minutes of inoculation to ensure that the inoculum was evenly distributed throughout the product. One sample remained un-inoculated and was used as negative control to monitor the native contamination flora. All samples were incubated in the dark at chilled temperature (4° C.) and assayed for yeast, plated on an appropriate yeast medium, until confirmed failure (≧1.0E+06 CFU/g) or until visible mould growth, respectively. In parallel, the growth of lactic acid bacteria and total cell count were monitored on MRS and PCA in all the batches and the non-inoculated blind, respectively.
The Salsa sauces were assayed at time zero, day 3, day 7, day 14 and were plated bi-weekly thereafter until day 92. CFU/g was detected for 3 samples from each batch inoculated with yeast. Before each sampling (closed jar), the sample was thoroughly mixed, 10 gram sample were aseptically pulled from each jar and diluted with peptone water. Each sample was stomached (1 min, normal setting) plated in duplicate onto YGC agar (VWR) and MRS (VWR), and incubated at 25° C. for 5 days and 37° C. for 3 days, respectively.

[2] = tested on: pool of 4 yeast species; test: Ranch dressing challenge study, yeast count on YGC agar; type: cell-based; conditions: for Cell counts on YGC-agar to determine the yeast growth: 0.1% in Ranch dressing, inoculation 500 CFU/g, 20° C.
Text: Samples of the regular ranch dressing (formula in table 24) with and without the experimental blend were produced in the Danisco Culinary Application Laboratory, Brabrand.
Each batch was split (scheme table 23) in probes of 90 gram and placed in sterile jars. 36 probes of each batch were inoculated with the desired level of yeast and 5 probes of each batch were inoculated with mould spores, respectively at a targeted inoculation rate of 500 to 1000 CFU/g.
as §1, with “incubated” for “incubated in the dark”, “ambient” for “chilled”, “(20°” for “(4°”, “(≧1.0E+05” for “(≧1.0E+06”
In total 8 strains, from Danisco's in-house Culture Collection (DCS) (Danisco A/S, Brabrand, Denmark) were employed as 1 yeast and 1 mould pool in the respective Ranch dressing. Originally, they were isolated e.g. from spoiled ketchup, mayonnaise, Salsa dressing or obtained from official culture collections such as DMSZ.
Before each experiment, a stock culture of each yeast, maintained at −86° C. in suitable broth containing glycerol 50% (v/v), was propagated through two consecutive growth cycles in suitable media (YGC-agar (VWR) pH 5.1+0.2; YM Broth (Becton, Dickinson and company) at pH 6.0±0.2 at and temperature (25° C.). The overnight cultures are diluted in saline solution to obtain working cultures. A cocktail of the yeasts was generated by adding equal cell counts of each culture into a sterile container and mixed appropriately. The yeast cocktail was diluted and inoculated into the product in order to achieve the final desired concentration. Pool counts were verified via plate count. Mould spores were prepared as follows: approx. 2 ml of sterile demineralised water was used to wash the spores off an out-grown mould cultivar (minimum 5 day old plate). This suspension is transferred to a sterile container. Pool counts were verified via plate count.
The Ranch dressing was assayed a time zero, day 3, day 7, day 14, bi-weekly thereafter until week 13 (day 90) and every 4 to 6 weeks until week 29. CFU/g was detected for 3 samples from each batch inoculated with yeast. Before each sampling (closed jar), the sample was thoroughly mixed. 10 gram sample were aseptically pulled from each jar and diluted with peptone water. Each sample was stomached (1 min, normal setting) plated in duplicate onto YGC agar (VWR), PC agar and MRS agar (VWR), and incubated at 25° C. for 5 and 7 days and 37° C. for 3 days, respectively.

C/C=C/C=C/C(=O)[O-].[K+] [Potassium Sorbate, potassium sorbate]
time after which no more colonies were detected on MRS-agar ([1]; Salsa sauce, potassium sorbate 0.1%): 42 days
Cell counts on MRS-agar (native Lactic acid bacteria) ([1]; day 0): 4.75E+02
Cell counts on MRS-agar (native Lactic acid bacteria) ([1]; day 2): 1.50E+03
Cell counts on MRS-agar (native Lactic acid bacteria) ([1]; day 5): 1.40E+02
Cell counts on MRS-agar (native Lactic acid bacteria) ([1]; day 7): 1.30E+03
Cell counts on MRS-agar (native Lactic acid bacteria) ([1]; day 14): 5.38E+02
Cell counts on MRS-agar (native Lactic acid bacteria) ([1]; day 28): 4.30E+01
Cell counts on MRS-agar (native Lactic acid bacteria) ([1]; day 41): <1.00E+01
Cell counts on MRS-agar (native Lactic acid bacteria) ([1]; day 55): <1.00E+01
Cell counts on MRS-agar (native Lactic acid bacteria) ([1]; day 93): <1.00E+01
initial reduction of the inoculated cell load ([2]; Ranch dressing 20° C., FP1000 D1/D2 1%, MicroGARD 200 1%, potassium sorbate 0.1%): 2 log
Cell counts on YGC-agar to determine the yeast growth ([2]; day 0): 3.20E+02 CFU/g
Cell counts on YGC-agar to determine the yeast growth ([2]; day 3): 1.70E+02 CFU/g
Cell counts on YGC-agar to determine the yeast growth ([2]; day 7): 7.50E+01 CFU/g
Cell counts on YGC-agar to determine the yeast growth ([2]; day 14): 1.00E+01 CFU/g
Cell counts on YGC-agar to determine the yeast growth ([2]; day 28): 1.00E+01 CFU/g
Cell counts on YGC-agar to determine the yeast growth ([2]; day 42): 1.00E+01 CFU/g
Cell counts on YGC-agar to determine the yeast growth ([2]; day 56): 1.00E+01 CFU/g
Cell counts on YGC-agar to determine the yeast growth ([2]; day 64): 1.00E+01 CFU/g
Cell counts on YGC-agar to determine the yeast growth ([2]; day 90): 1.00E+01 CFU/g
Cell counts on YGC-agar to determine the yeast growth ([2]; day 157): 1.00E+01 CFU/g
Cell counts on YGC-agar to determine the yeast growth ([2]; day 198): 1.00E+01 CFU/g
